{"source": "patent US11679100B2", "about": "“Methods of enhancing immunity” (The Regents of the University of California, priority 2018, dated 2023)", "key": {"CD11b": {"biological_target": "T1, CD11b (Homo sapiens, UniProt P11215)", "T1 construct": "Human CD14+ monocytes were isolated from the PBMCs; endogenous in cells; host or cells: primary human CD14+ monocytes from whole-blood PBMCs", "test": "Cell adhesion assay on ICAM-1 coated substrates", "format": "cell-based", "conditions": "LA1 20 μM", "procedure": "Cell Adhesion Assay— PBMCs were extracted from human whole blood using the vendor instructions for Sep Mate-50 tubes (#15450, Stem Cell). Human CD14+ monocytes were isolated from the PBMCs using the vendor instructions for the EasySep™ Human Monocyte Isolation Kit (Catalog #19359, Stem Cell). Briefly, 384-well plates (#3700, Corning) were coated with recombinant human ICAM1 (750 ng/mL, #720-IC, R&D Systems), or M1/70 (10 ug/mL, #101202, Biolegend) or IB4 (10 μg/mL, #167-020, Ancell) overnight at 4° C. Wells were blocked with 1% milk dissolved in TBS for 1 hr at room temperature. All wells received Ca^2+/Mg^2+ ions (1 mM each physiological concentration, baseline control) except for the positive control wells that received 1 mM Mn^2+ ions. A stock solution of LA1 agonist was prepared by dissolving the compound in DMSO at a concentration of 2 mM and final dilution of LA1 in wells was 20 μM. The final concentration of DMSO in all wells was 1%. 45,000 human monocytes were seeded in each well. Some wells received human monocytes cells that were pre-blocked with anti-human CD11b (M1/70) for 15 min at 4° C. The plates were incubated at 37° C. for 30 min followed by 30 min of inversion at room temperature to remove non-adherent cells. Cells were fixed, stained with DAPI and counted using the Opera High Content Screening System (Perkin Elmer). Assays were performed in six replicate wells."}, "[1]": {"system": "bone marrow derived murine macrophages", "test": "mRNA/miRNA expression in LA1-treated macrophages", "format": "cell-based", "procedure": "Murine macrophage differentiation and culture-Bone marrow derived cells (BMDC) were aseptically harvested from 6-8 week-old female mice by flushing leg bones of euthanized mice with phosphate buffered saline (PBS), 0.5% BSA, 2 mM EDTA, incubating in red cell lysis buffer (155 mM NH4Cl, 10 mM NaHCO3 and 0.1 mM EDTA) and centrifuging over Histopaque 1083 to purify the mononuclear cells. Approximately 5×10^7 BMDC were purified by gradient centrifugation from the femurs and tibias of a single mouse. Purified mononuclear cells were cultured in RPMI+20% serum+50 ng/ml M-CSF (PeproTech). Macrophage Polarization-Bone marrow derived macrophages were polarized with either IFNγ (20 ng/ml, Peprotech) plus LPS (100 ng/ml, Sigma) or LPS alone for 24 h or IL-4 (20 ng/ml, Peprotech) for 24-48 h. In some cases, macrophages were incubated with inhibitors of Stat3 ([…]) or cMyc (10058-F4, Selleck). […] Secreted protein was measured in culture supernatants by ELISA assays. […] Sybr green-based qPCR was performed using primers to murine Gapdh (Mm_Gapdh_1_SG), Arg1 (Mm_[…]_SG_QT00134288) Tgfb (Mm_Tgfb_1_SG Qiagen QT00145250), […] (Mm_Il10_1_SG Qiagen QT00106169), Il6 (Mm_Il6_1_SG Qiagen QT00098875), Nos2 (Mm_Nos2_1_SG Qiagen QT00100275), Il12b (Mm_Il12b_1_SG Qiagen QT00153643), Ifng (Mm_Ifng 1_SG Qiagen QT01038821), Il1b (Mm_Il1b_2_SG Qiagen QT01048355), Tnfa (Mm_Tnfa_1_SG Qiagen QT00104006), Vegfa (Mm_Vegfa_1_SG Qiagen QT00160769), Pdgfb (Mm_Pdgfb_1_SG Qiagen QT00266910) and human GAPDH (Hs_GAPDH_1_SG Qiagen QT00079247), ARG1 (Hs_Arginase_1_SG Qiagen QT00068446, IL6 (Hs_Il6_1_SG Qiagen QT00083720), NOS2 (Hs_NOS2_1_SG Qiagen QT00068740), IL12B (Hs_IL12B_1_SG Qiagen QT00000364), and PDGFB (Hs_PDGFB_1_SG Qiagen QT00001260) (Qiagen QuantiTect Primer Assay). mRNA levels were normalized to Gapdh or GAPDH (ΔCt=Ct gene of interest-Ct Gapdh) and reported as relative mRNA expression (ΔΔCt=2^-(ΔCt sample-ΔCt control)) or fold change. […]"}, "[2]": {"system": "LLC cells and macrophages", "test": "In vitro proliferation of LLC cells and macrophages", "format": "cell-based, murine"}, "LLC tumor cells": {"system": "LLC tumor cells", "test": "Adoptive transfer of LA1-treated tumor associated macrophages co-implanted with LLC tumor cells", "format": "in vivo, mice", "conditions": "tumor-derived macrophages treated with LA1, mixed 1:1 with LLC cells", "procedure": "In vivo Macrophage Adoptive Transfer Experiments—F4/80+ cells were isolated from single cell suspensions of 700-800 mg LLC tumors from donor WT or Itgam−/− mice by FACS sorting. Primary bone marrow derived macrophages from WT or Itgam−/− mice were polarized and harvested into a single cell suspension. Alternatively, WT tumor derived macrophages were incubated with LA1 or saline. Purified macrophages were admixed 1:1 with LLC tumor cells and 5×10^5 total cells were injected subcutaneously into syngeneic host WT or Itgam−/− mice. Tumors were excised and weights were determined 14 days after inoculation."}}}
{"smiles": "O=C(O)c1ccc(-c2ccc(/C=C3\\SC(=S)N(Cc4ccccc4)C3=O)o2)cc1", "note": "[LA1, leukadherin 1]", "values": [{"measurement": "myeloid cell adhesion to ICAM-1 coated substrates", "setting": "CD11b", "result": "stimulated myeloid cell adhesion to ICAM-1 coated substrates"}, {"measurement": "expression of Il1b, Tnfa, Il12, Nos2 and Ifng mRNAs", "setting": "[1]; IFNγ+LPS stimulated bone marrow derived murine macrophages", "result": "increases in expression of Il1b, Tnfa, Il12, Nos2 and Ifng mRNAs"}, {"measurement": "Let7a expression", "setting": "[1]; macrophages", "result": "stimulated Let7a expression"}, {"measurement": "Pdgfb and Il6 expression", "setting": "[1]; macrophages", "result": "inhibited Pdgfb and Il6 expression"}, {"measurement": "LLC or macrophage viability", "setting": "[2]", "result": "no direct effect on LLC or macrophage viability"}, {"measurement": "tumor growth after co-implantation of treated macrophages with LLC cells", "setting": "LLC tumor cells", "result": "completely inhibited tumor growth"}]}
